Tested on: pIRG dual reporter in HEK 293T cells
Test: Small molecule activation of Cas9-OABK in live cells (DsRed/EGFP dual reporter assay)
Format: cell-based, human
Conditions: for Concentration dependence of EGFP expression (activation of gene editing): varying concentrations (0-500 μM) of phosphine, Cas9-OABK
Description: HEK 293T cells were seeded into a 96-well cell culture microplate (Greiner), and incubated overnight in DMEM growth media supplemented with 10% FBS and 1% penicillin/streptomycin at 37° C. in 5% CO2 humidified atmosphere. Before transfection, media was replaced with antibiotics-free DMEM supplemented with or without OABK (0.25 mM). Quadruple transfections were carried out with linear PEI using pMbOABKRS-wtCas9 or pMbOABKRS-Cas9-K866TAG, p4CMVE-U6-PylT (Gautier et al., J Am Chem Soc 132, 4086-4088, 2010), gRNA plasmids (Hemphill et al., J Am Chem Soc 137, 5642-5645, 2015), and pRG dual reporter plasmid ((Hemphill et al., J Am Chem Soc 137, 5642-5645, 2015)) (100 ng of each). After a 24 h incubation, cells were washed with fresh DMEM and incubated for 2 h. For regulating gene editing in live cells, HEK 293T cells were treated with 5 (0.5 mM) or without 5. After overnight incubation, media was replaced with DMEM without phenol red, and cells were imaged on a Zeiss Observer Z1 microscope (10× objective, NA 0.8 plan-apochromat) with EGFP BP470/40; Em: BP525/50) and DsRed BP550/25; Em: BP605/70) filter cubes. Fluorescent cell counting was performed on a Nikon A1 confocal microscope (10× objective) and analyzed using Elements software.
The function of Cas9-OABK in the absence and presence of phosphine derivatives 5 and 6 (see FIG. 14) was investigated using a DsRed/EGFP dual reporter assay (FIG. 15A). […] Once Cas9-OABK is activated by the small molecule phosphine, the complex of functional Cas9 and gRNAs induces excision of the DsRed-terminator cassette, followed by NHEJ repair, and leading to EGFP expression.

Structure (SMILES) | Concentration dependence of EGFP expression (activation of gene editing) | Effective concentration of phosphine for activation of Cas9-OABK (live HEK 293T cells, concentrations 0-500 μM tested) [µM]
O=C(O)c1ccccc1P(c1ccccc1)c1ccccc1 [compound 5, 2-(diphenylphosphino)benzoic acid] | dose-dependent | 
NC(=O)c1ccccc1P(c1ccccc1)c1ccccc1 [compound 6, 2-(diphenylphosphino)benzamide] | dose-dependent | 25
